The record followed here is US8791155B2, “Chroman derivatives” (Edison Pharmaceuticals, Inc., priority 2003, dated 2014).

Assay [1] has as its system release of the leukotriene LTB4 from MPRO cell line. The assay can be described thus: LTB4 assay (competitive ELISA). It is filed as cell-based. The conditions noted are these: Mus musculus; 1 μM calcium ionophore A23187, 1 hour; read-out: EC50, inhibition of LTB4 production. The text has this: This procedure was used for measuring the release of the leukotriene LTB4 from a neutrophil cell line using a competitive ELISA technique.
• MPRO cell line (ATCC, Catalog #CRL-11422) • Calciumionophore (A23187) (Sigma, Catalog #C7522) • Nordihydroguaiaretic acid (NDGA) (BioMol, Catalog #E1101-0001) • Retinoic Acid (all-trans) (ATRA) (Sigma, Catalog #95152) • Sterile, tissue-culture treated 96-well plates (Corning, Catalog #3614) Materials for LTB4 ELISA • Precoated (Mouse Anti-Rabbit IgG) EIA 96 Well Strip Plates (Cayman, Catalog #400004) • Leukotriene B4 AChE Tracer (Cayman Catalog #420110) • Leukotriene B4 EIA Antiserum (Cayman Catalog #420112) • Ellman's Reagent (Cayman Catalog #400050) • EIA Buffer Concentrate (10×) (Cayman Catalog #400060) • Wash Buffer Concentrate (400×) (Cayman Catalog #400062) • Plastic plate covers (Cayman Catalog #400012) Procedure
A mouse promyelocytic cell line (MPRO) was used in this assay. These cells are committed immature neutrophils that can be differentiated into mature neutrophils by treatment with 10 μM all-trans retinoic acid for 72 hours
Following 72 hours of differentiation, cells were stimulated with 1 μM of a calcium ionophore (A23187) in the presence or absence of test compound or vehicle for 1 hour at 370 C. After this time, supernatant was removed from the cells and the LTB4 levels were determined following manufacturer's instructions, using a Leukotriene B4 EIA kit from Cayman (Cat #520111)
The negative controls were media samples from differentiated but unstimulated cells.
The compounds were screened at 5 concentrations in quadruplicate starting at 10 μM
On the technique in general: An ELISA detects its analyte on a solid surface through an enzyme-linked reagent.

Assay [2] has as its target T1, human recombinant 5-lipoxygenase (Homo sapiens, UniProt P09917).
T1 construct: purchased Cayman 60402
T1 sequence (P09917 1-674): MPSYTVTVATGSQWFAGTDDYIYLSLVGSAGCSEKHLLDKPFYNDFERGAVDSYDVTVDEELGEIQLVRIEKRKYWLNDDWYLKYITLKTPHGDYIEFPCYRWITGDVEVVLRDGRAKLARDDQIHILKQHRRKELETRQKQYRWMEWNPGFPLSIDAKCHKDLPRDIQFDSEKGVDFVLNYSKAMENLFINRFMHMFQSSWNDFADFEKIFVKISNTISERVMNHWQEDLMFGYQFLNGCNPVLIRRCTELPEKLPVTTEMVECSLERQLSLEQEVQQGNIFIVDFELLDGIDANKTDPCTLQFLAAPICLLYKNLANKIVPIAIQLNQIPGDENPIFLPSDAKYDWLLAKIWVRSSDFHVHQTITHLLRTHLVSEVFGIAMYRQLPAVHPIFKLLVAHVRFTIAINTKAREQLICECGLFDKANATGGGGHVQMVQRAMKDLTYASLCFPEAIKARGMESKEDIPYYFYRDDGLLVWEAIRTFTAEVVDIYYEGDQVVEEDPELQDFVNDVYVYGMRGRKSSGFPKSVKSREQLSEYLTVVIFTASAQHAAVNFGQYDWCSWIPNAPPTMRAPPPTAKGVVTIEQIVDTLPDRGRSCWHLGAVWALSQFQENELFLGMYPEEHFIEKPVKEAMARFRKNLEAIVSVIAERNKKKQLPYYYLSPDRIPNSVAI
The assay can be described thus: 5-Lipoxygenase enzyme assay. Format: biochemical. The settings on record: 70 μM arachidonic acid, pH 7.4, 10 minute incubation; read-out: IC50, inhibition of 5-Lipoxygenase. An excerpt:
(§1) In vitro evaluation of the ability of a composition to inhibit the enzymes 5-lipoxygenase, 15-lipoxygenase, or 12/15 lipoxygenase as described in Walidge, N. B. et al Anal. Biochem., 231: 354-358 (1995) using a high throughput colorimetric method; as well as in vitro evaluation of inhibiting LTB4 is described in Examples.
This procedure was used for measuring the enzymatic activity of human recombinant 5-lipoxygenase using a colorimetric method based on the ferric oxidation of xylenol orange.
• 96 well flat bottom microfilter plates (VWR, Catalog #62402-933 9295) • Lipoxygenase screening assay buffer (Cayman, Catalog #760710) • Human recombinant 5-lipoxygenase (Cayman, Catalog #60402) • Arachidonic Acid (Sigma, Catalog #A3555) • Xylenol orange tetrasodium salt (Aldrich, Catalog #227854) • Iron (II) sulfate heptahydrate (Sigma, Catalog #F7002) • Sulfuric acid (95-98%) [18M]—Methanol Procedure
(§2) Human recombinant 5-lipoxygenase (Cayman Cat #60402) was used in this assay. The test compound and/or vehicle was added to 0.51-1 5-lipoxygenase in 50 mM Tris-HCl buffer, pH 7.4. The reaction was initiated by addition of 70 μM arachidonic acid in Tris-HCl buffer, pH 7.4, and terminated after a 10 minute incubation at room temperature by addition of FOX reagent (25 mM sulphuric acid, 100 μM xylenol orange, 100 μM iron (II) sulphate, methanol:water 9:1). The yellow color of acidified xylenol orange was converted to a blue color by the lipid hydroperoxide-mediated oxidation of Fe 2+ ions and the interaction of the resulting Fe 3+ ions with the dye. The complex was allowed to form during a 1 hour incubation at room temperature with shaking. Absorbance of the Fe 3+ complex was then measured at […] using a spectrophotometer.
(§3) Negative controls contained enzyme during the incubation step but substrate was not added until after the FOX reagent.
Compounds were screened at 5 concentrations in triplicate starting at 10 μM

Assay [3] concerns the target T2, porcine leukocyte 12/15-lipoxygenase (Sus scrofa, UniProt P16469).
T2 construct: purchased Cayman 60300
T2 sequence (P16469 1-663): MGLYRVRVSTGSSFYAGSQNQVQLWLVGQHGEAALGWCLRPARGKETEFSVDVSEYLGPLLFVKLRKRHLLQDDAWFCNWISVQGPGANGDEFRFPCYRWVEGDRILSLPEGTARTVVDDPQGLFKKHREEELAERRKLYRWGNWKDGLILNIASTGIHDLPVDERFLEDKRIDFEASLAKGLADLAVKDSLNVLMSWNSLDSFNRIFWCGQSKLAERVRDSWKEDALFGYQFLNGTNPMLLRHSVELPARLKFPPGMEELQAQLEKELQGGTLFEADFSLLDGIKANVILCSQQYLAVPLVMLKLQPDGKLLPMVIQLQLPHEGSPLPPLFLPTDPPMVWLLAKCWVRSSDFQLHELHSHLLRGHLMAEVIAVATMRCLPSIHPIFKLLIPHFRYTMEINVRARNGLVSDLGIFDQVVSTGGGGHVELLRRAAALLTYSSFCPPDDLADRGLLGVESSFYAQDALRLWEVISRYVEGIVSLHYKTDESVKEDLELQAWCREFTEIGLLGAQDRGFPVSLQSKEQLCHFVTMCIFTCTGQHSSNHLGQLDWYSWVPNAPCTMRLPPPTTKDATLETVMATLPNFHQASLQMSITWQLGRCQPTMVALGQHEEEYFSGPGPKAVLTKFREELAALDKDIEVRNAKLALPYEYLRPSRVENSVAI
The assay can be described thus: 12/15-Lipoxygenase enzyme assay. Format: biochemical. The settings on record: 70 μM arachidonic acid, pH 7.4, 10 minute incubation; read-out: IC50, inhibition of 12/15-Lipoxygenase.
From the text: as §1
This procedure was used for measuring the enzymatic activity of porcine leukocyte 12/15-lipoxygenase using a colorimetric method based on the ferric oxidation of xylenol orange.
• 96 well flat bottom microfilter plates (VWR, Catalog #62402-933 9295) • Lipoxygenase screening assay buffer (Cayman, Catalog #760710) • Porcine leukocyte 12/15-lipoxygenase (Cayman, Catalog #60300) • Arachidonic Acid (Sigma, Catalog #A3555) • Xylenol orange tetrasodium salt (Aldrich, Catalog #227854) • Iron (II) sulfate heptahydrate (Sigma, Catalog #F7002) • Sulfuric acid (95-98%) [18M] • Methanol Procedure
as §2, with “Porcine Leukocyte 12/15-lipoxygenase” for “Human recombinant 5-lipoxygenase”, “#60300)” for “#60402)”, “Test” for “The test”, “1.3 U 12/15-lipoxygenase” for “0.51-1 5-lipoxygenase”
as §3
Compounds are screened at 5 concentrations in triplicate starting at 10 μM

The test system of assay [4] is dopaminergic neuronal cell line. Description: High glutamate-induced oxidative stress assay (HGOS). It is filed as cell-based. The conditions noted are these: Mus musculus; 30 mM glutamate, 16 hrs; read-out: EC50, protection against HGOS cell injury and cell death. An excerpt: Protection against redox stress can be evaluated in cell culture using high glutamate induced oxidative stress (HGOS) in mouse dopaminergic cell lines. The cytotoxic effect of glutamate is not due to excitotoxicity, as this cell line is devoid of inotropic glutamate receptors. Rather, the glutamate-induced toxicity of dopaminergic cells is associated with an inhibition of cystine transport which subsequently leads to depletion of intracellular glutathione (GSH) levels (Murphy T. H., et al. Neuron 2, 1547-1558, 1989), activation of neuronal 12-lipoxygenase (Li, Y. et al., Neuron 19, 453-463, 1997), increased ROS production (Tan S. et al., J. Cell Biol. 141, 1423-1432, 1998) and elevated intracellular Cat^2+ (Li, Y. et al., see supra). Some molecules were measured for their ability to protect cells against glutamate-induced stress and the assay is detailed in Examples.
This procedure was used to induce high glutamate-induced oxidative stress (HGOS) in a dopaminergic neuronal cell line. Using this assay the potency and efficacy of test articles against HGOS neuronal cell injury and cell death was established in a high throughput manner.
• Dopaminergic neuronal cell lines • DMEM-No Glucose (Life Technologies Cat #11966-025) • L-glutamine (Life Technologies Cat #25030-081) • L-glutamic acid, monosodium salt (Sigma Cat #G5889) • D-glucose (Sigma Cat #G-6151) • 10×HBSS buffer (pH 7.4) (950 ml Pyrogen-free water, 2.44 g/L MgCl2.6H20, 3.73 g/L KCl, 59.58 g/L Hepes, 58.44 g/L NaCl, 1.36 g/L KH2PO4, 1.91 g/L CaCl2.2H2O and pH to […] with HCl) • Cell Tracker Green fluorescent dye (Molecular Probes, Cat #2925). Prepare a 5NM solution in pre-warmed HBSS just prior to use. • Sterile 96-well plates precoated with poly-D-lysine (Corning Catalog #3665) • 96-well deep well mother plate, DyNA Block 1000 (VWR Catalog #40002-008) Neuronal Cells
The cells were seeded into 96-well plates at a density of 2000 per well and left to grow for 72 hours in a 33° C. incubator with 5% CO2 in air atmosphere. The passage number of the cells for each assay experiment were no later than p11 in order to minimize experimental variation.
All compounds were dissolved in DMEM-No Glu containing 1 mM glucose, 30 mM glutamate and 1× Pen/Strep. DMEM-No Glu with 1 mM glucose and 1× P/S was used as the negative control, DMEM-No Glucose with 1 mM glucose, […] glutamate was used as a positive control and 100 NM Glutathione was added to the positive control as a standard. All of the procedures for this involving the making and dilution of compounds were performed using aseptic conditions and with minimal light.
The plates were removed from the incubator and examined under the microscope for morphological appearance and density. Using an aseptic technique and an 8-channel aspirator the media was carefully removed from the cells and replaced with 200 μI of 1×HBSS. This was done as quickly as possible to prevent the cells drying out. The plates were then placed in the humidified 37° C. incubators of the Biomek 2000 Side Loader. Four plates were washed at a time so as to minimize the time that the cells were sitting in 1×HBSS prior to addition of the compound test solution. Experimental Setup
The Beckman Biomek workstations were used to load the compounds and controls from the mother plates onto the cell plates that were prewashed with HBSS under sterile conditions. The plates were incubated in the upper HTS incubator at 37° C. in 5% CO2 for exactly 16 hrs. The following day, using the Beckman Biomek workstations, the plates were removed from the incubator. Using Cell Tracker Addition, the compounds were removed from the plates, washed once with […] of pre-warmed 1×HBSS and then 100 μL of 5 μM Cell Tracker Green was added to each well. The plates were incubated at 37° C. for 30 min to allow the dye to enter the cell and be cleaved by the esterases. […]

Turning to `Cc1c(C)c2c(c(C)c1O)CCC(C)(c1cccs1)O2` (stereo not drawn) [2,5,7,8-Tetramethyl-2-thiophen-2-yl-chroman-6-ol], in assay [1], the EC50 is less than 1 µM. Moreover, the IC50 in assay [2] and in assay [3] was less than 1 µM each time.

Take `Cc1cc(C2(C)CCc3cc(O)c(C)c(C)c3O2)c(C)s1` (stereo not drawn) [2-(2,5-Dimethyl-thiophen-3-yl)-2,7,8-trimethyl-chroman-6-ol]: the EC50 in assay [1] was less than 1 µM. Besides, the IC50 in assay [2] is less than 1 µM.

Consider `Cc1c(C)c2c(c(-c3ccco3)c1O)CCC(C)(C)O2` [5-Furan-2-yl-2,2,7,8-tetramethyl-chroman-6-ol], for which the EC50 in assay [1] is less than 1 µM. The IC50 in assay [2] and in assay [3] was less than 1 µM each time.

Regarding `Cc1c(C)c2c(c(C)c1O)CCC(C)(C=C(Cl)Cl)O2` (stereo not drawn) [2-(2,2-Dichloro-vinyl)-2,5,7,8-tetramethyl-chroman-6-ol], the IC50 in assay [2] and in assay [3] was less than 1 µM in each case.

On to `Cc1c(C)c2c(c(-c3ccc(C(=O)O)cc3)c1O)CCC(C)(C)O2` [4-(6-Hydroxy-2,2,7,8-tetramethyl-chroman-5-yl)-benzoic acid], for which the EC50 in assay [4] is less than 5 µM; in assay [1], less than 1 µM.

`Cc1c(C)c2c(c(-c3cccnc3)c1O)CCC(C)(C)O2` [2,2,7,8-Tetramethyl-5-pyridin-3-yl-chroman-6-ol]: the EC50 in assay [4] was less than 5 µM; in assay [1], less than 1 µM.

For the molecule `Cc1c(C)c2c(c(-c3cccc([N+](=O)[O-])c3)c1O)CCC(C)(C)O2` [2,2,7,8-Tetramethyl-5-(3-nitro-phenyl)-chroman-6-ol], the EC50 in assay [1] is less than 1 µM.

What is called EC50 is the concentration that produces a half-maximal response.
